Here are results for two compounds from patent US20160022810A1, “Method for Treating Cancers by Alternating Immunotherapeutics and Directly Oncolytic Therapeutics” (priority 2014, published 2016).

The subject of data set [1] is 4T1 breast cancer cells. The experiment in a line: survival with single regimen, cyclophosphamide or CATS (FIG. 8). The data set is classed as in vivo. As to conditions: 80 mg/kg ip weekly from Day 16; no mice survived beyond; control 37 days. On the procedure: Thirty mice were orthotopically implanted with 5×10^4 4T1 breast cancer cells in their mammary fat pad on Day 0. On Day 16, mice were randomized into three cohorts of ten mice each to receive weekly doses of either carrier control (Brown line, Placebo, 25 ng iv), cyclophosphamide cytotoxic drug (CD) chemotherapy (Green line, CD, 80 mg/kg ip) or CATS™ immunotherapy (Purple line, 25 ng iv). Kaplan-Meier curves analyzing surviving mice in each cohort show no mice survived beyond 37 days in the control group, or 46 days in the CD group, while 4 of 10 mice were alive at day 62 in the CATS™ treatment group.

The next data set concerns 4T1 cells. The experiment in a line: survival with CATS alternating with cyclophosphamide (FIG. 10). Format: in vivo, mice. The note with it: cyclophosphamide alone 80 mg/kg ip, two boluses over 48 hours from Day 20, then weekly. On the procedure:
This Kaplan-Meier graph plots survival of three groups of mice (10/cohort) implanted with 1×10^4 4T1 cells on Day 0 and initiated to treatment on Day 20 with two bolus doses over the first 48 hours, and thereafter once weekly of either placebo (blue, 50 ng IV), cyclophosphamide (Cy, orange, 80 mg/kg ip) or alternating therapy (CATS/Cy, green, 50 ng IV CATS™ boluses or every other week, alternating every other week with Cy 80 mg/kg). In this trial 100% of mice treated with CATS™ alternating therapy survived 75 days, at which time the trial was terminated.

The subject of data set [2] is 4T1 breast cancer cells. The experiment in a line: visible lung metastases, CATS versus paclitaxel (FIG. 7). Format: in vivo, BALB/c mice. The note with it: two boluses separated by 2 days; 100 micrograms. The text has this:
This reflects into a much stronger anti-metastatic activity (FIG. 7) of CATS™ over paclitaxel, that translates to survival benefits. In this study, 40 BALB/c mice were orthotopically implanted in the mammary pad on Day 0 with 1×10^4 4T1 breast cancer cells. When tumor volume approximated 200 mm^3 (on Day 17), mice were randomly distributed into four cohorts of ten mice each. […] Mice were sacrificed when tumor diameter reached 14 mm (Day 30), at which time mice were euthanized, lungs removed, and visible lung metastases were quantitated by a second observer blinded to the treatment protocols. Floating bars depict maximum and minimum number of metastases each cohort, horizontal line indicates mean±SE.

In the data set with 4T1 breast cancer cells [1], `O=P1(N(CCCl)CCCl)NCCCO1` (stereo not drawn) [cyclophosphamide] displayed a longest survival of at most 46 days. In addition, the “survival at Day 40” value with 4T1 cells is listed as “all of the mice receiving cyclophosphamide alone were dead”.
As for `CC(=O)O[C@H]1C(=O)[C@@]2(C)[C@H]([C@H](OC(=O)c3ccccc3)[C@]3(O)C[C@H](OC(=O)[C@H](O)[C@@H](NC(=O)c4ccccc4)c4ccccc4)C(C)=C1C3(C)C)[C@]1(OC(C)=O)CO[C@@H]1C[C@@H]2O` [Taxol, paclitaxel], the “tolerability of consolidation dosing” value in the data set on 4T1 breast cancer cells [2] is listed as “toxic”.
